Results: patent publication US20150140043A1, “IMMUNOMODULATORY METHODS USING NOTCH AGONISTS” (INSTITUT NATIONAL DE LA SANTE DE LA RECHERCHE MEDICAL …, priority 2012, published 2015)

B1: DL-1: recombinant NOTCH ligand Delta-like 1, used coated as DL-1-Fc (SEQ ID NO: 8) (protein, listed as Homo sapiens)
chain: MGSRCALALAVLSALLCQVWSSGVFELKLQEFVNKKGLLGNRNCCRGGAGPPPCACRTFFRVCLKHYQASVSPEPPCTYGSAVTPVLGVDSFSLPDGGGADSAFSNPIRFPFGFTWPGTFSLIIEALHTDSPDDLATENPERLISRLATQRHLTVGEEWSQDLHSSGRTDLKYSYRFVCDEHYYGEGCSVFCRPRDDAFGHFTCGERGEKVCNPGWKGPYCTEPICLPGCDEQHGFCDKPGECKCRVGWQGRYCDECIRYPGCLHGTCQQPWQCNCQEGWGGLFCNQDLNYCTHHKPCKNGATCTNTGQGSYTCSCRPGYTGATCELGIDECDPSPCKNGGSCTDLENSYSCTCPPGFYGKICELSAMTCADGPCFNGGRCSDSPDGGYSCRCPVGYSGFNCEKKIDYCSSSPCSNGAKCVDLGDAYLCRCQAGFSGRHCDDNVDDCASSPCANGGTCRDGVNDFSCTCPPGYTGRNCSAPVSRCEHAPCHNGATCHERGHRYVCECARGYGGPNCQFLLPELPPGPAVVDLTEKLEGQGGPFPWVAVCAGVILVLMLLLGCAAVVVCVRLRLQKHRPPADPCRGETETMNNLANCQREKDISVSIIGATQIKNTNKKADFHGDHSADKNGFKARYPAVDYNLVQDLKGDDTAVRDAHSKRDTKCQPQGSSGEEKGTPTTLRGGEASERKRPDSGCSTSKDTKYQSVYVISEEKDECVIATEV

Key:
TGF-βRII RNA expression = experiment: Quantitative real-time PCR of TGF-βRII transcripts in CD4+CD25- T cells; type: cell-based, human; settings: coated anti-CD3 (200 ng/ml) and ligand (5 μg/ml) for 3 hours
Protocol: FIG. 3: TGF-βRII expression on effector T cells after NOTCH ligands exposure • A) CD4^+CD25^−T cells were purified using Miltenyi microbeads from PBMC and cultured for 3 hours in coated wells with anti-CD3 (200 ng/ml) and NOTCH ligands (5 μg/ml) or IgG control (5 μg/ml). Quantitative real-time PCR was performed to measure the transcripts levels of TGF-βRII. Data shown are mean±SEM and are representative of 4 independent experiments. * indicates P<0.05. • B) Protein levels of TGF-βRII in CD4^+CD25^−T cells stimulated to DL-1, DL-4 and Jagged-1 using FACS analysis. Mean of fluorescence are represented±SEM. * indicates P<0.05.
CD4^+CD25^− T cells were cultured for 3 hours in coated wells with anti-CD3 (200 ng/ml) and NOTCH ligands (5 μg/ml) or IgG control (5 μg/ml). Total RNA was extracted with Trizol (Invitrogen) and purified by chloroform extraction. RNA was then reverse transcribed using 1 mM oligodT and the Superscript™ HH Rnase H-reverse transcriptase (Invitrogen Life technologies) according to the manufacturer's instructions. Quantitative PCR was performed in a LightCycler System (Roche diagnostics) using a SYBR Green PCR kit from Roche Diagnostics. The cDNA input for each population was normalized to obtain equivalent signals with Splicing Factor 3A1 (SF3A1) used as housekeeping gene. Primers used were: […]
Active TGF-β mediates its biological functions by binding to TGF-β type I and type II receptors (TGF-βRII). Therefore, the effects of NOTCH activation on TGF-βRII expression of effector T cells were first investigated. […] This effect is abrogated in the presence of GSI (P<0.05 for comparison with culture performed without GSI vehicle).

pSmad3 = experiment: Immunoblot for pSmad3 in CD4+CD25- T cells; type: cell-based, human; settings: 48 hours on coated ligand in the presence of TGF-β (5 ng/ml)
Protocol: FIG. 4: TGF-βRII function on effector T cells stimulated to NOTCH ligands • A) Western blot analysis was performed on CD4^+CD25^−T cells cultured for 48 hours in coated wells with anti-CD3 (200 ng/ml) and NOTCH ligands (5 μg/ml) in presence of TGF-β (5 ng/ml). The whole cell lysate was analysed by immunoblot for pSmad3 and b-actin was used as loading control. The experiment was repeated twice with similar results. […] Cells were analyzed 48 hours later and data normalized for β-galactosidase activity. Histograms show the luciferase activity in a representative experiment performed in PC12 with TβRII promoter-luciferase construct. The experiment was repeated 3 times with similar results.
CD4^+CD25^− T cells were stimulated with NOTCH Ligand during 2 days. 1 ng/ml of TGF-β was also added during 30 min to induce Smad3 phosphorylation. Cells were collected, washed and lysed with Tris HCL (20 mM) 0.5% SDS buffer in presence of DNase (benzonase), inhibitors of phosphatase and protease. 10 μg proteins were deposed for Western blot Analysis with following Antibodies: Anti-PhosphoSmad3, Smad3, Actine.
Given the above observations showing an upregulation of TGF-βRII following NOTCH activation, the inventors hypothesized that Jagged-1 and DL-4 led to an activation of TGF-β signalling in effector T cells. […]

Row | Molecule | TGF-βRII RNA expression, increase compared to IgG control (TGF-βRII RNA expression) | pSmad3 signal (immunoblot) (pSmad3)
1 | Jagged-1: recombinant NOTCH ligand Jagged-1, used coated as Jagged-1-Fc (SEQ ID NO: 5) | 2.8 fold | strong pSmad3 signal
2 | B1 | did not significantly modify | weak pSmad3 signal
